According to the NIST ThermoML archive (doi:10.1016/j.tca.2011.08.002):

Legend:
[1] = refractive index (Na D-line) (dimensionless); xn = mol fraction of the nth substance listed; conditions: 101 kPa, Liquid, Standard Abbe refractometry
[2] = xn = mol fraction of the nth substance listed; conditions: 101 kPa, Liquid, Vibrating tube method

C1CCC(NC2CCCCC2)CC1 [N-cyclohexylcyclohexanamine] + CCCCO
Conditions	mass density, [2] [kg/m3]	refractive index, [1]
288.15 K, x2 = 0	915.498	1.48636
288.15 K, x2 = 0.0512	914.315	1.48502
288.15 K, x2 = 0.1	912.993	1.48368
288.15 K, x2 = 0.2005	909.753	1.48027
288.15 K, x2 = 0.3005	905.695	1.47614
288.15 K, x2 = 0.4005	900.544	1.47121
288.15 K, x2 = 0.5	893.978	1.46517
288.15 K, x2 = 0.6002	885.407	1.45768
288.15 K, x2 = 0.7002	874.118	1.44826
288.15 K, x2 = 0.7984	859.411	1.43656
288.15 K, x2 = 0.8999	839.302	1.42104
288.15 K, x2 = 0.9493	827.33	1.41197
293.15 K, x2 = 0	911.705	1.48416
293.15 K, x2 = 0.0512	910.505	1.4828
293.15 K, x2 = 0.1	909.162	1.48147
293.15 K, x2 = 0.2005	905.869	1.47804
293.15 K, x2 = 0.3005	901.749	1.4739
293.15 K, x2 = 0.4005	896.535	1.46892
293.15 K, x2 = 0.5	889.912	1.46289
293.15 K, x2 = 0.6002	881.306	1.45538
293.15 K, x2 = 0.7002	870.025	1.44587
293.15 K, x2 = 0.7984	855.383	1.43432
293.15 K, x2 = 0.8999	835.393	1.4189
293.15 K, x2 = 0.9493	823.486	1.40987
298.15 K, x2 = 0	907.923	1.48198
298.15 K, x2 = 0.0512	906.698	1.4806
298.15 K, x2 = 0.1	905.333	1.47926
298.15 K, x2 = 0.2005	901.986	1.47579
298.15 K, x2 = 0.3005	897.806	1.47165
298.15 K, x2 = 0.4005	892.53	1.46666
298.15 K, x2 = 0.5	885.853	1.46059
298.15 K, x2 = 0.6002	877.207	1.45309
298.15 K, x2 = 0.7002	865.925	1.44368
298.15 K, x2 = 0.7984	851.344	1.43208
298.15 K, x2 = 0.8999	831.466	1.41673
298.15 K, x2 = 0.9493	819.618	1.40779
303.15 K, x2 = 0	904.144	1.47978
303.15 K, x2 = 0.0512	902.899	1.47842
303.15 K, x2 = 0.1	901.51	1.47704
303.15 K, x2 = 0.2005	898.104	1.47358
303.15 K, x2 = 0.3005	893.865	1.46939
303.15 K, x2 = 0.4005	888.526	1.4644
303.15 K, x2 = 0.5	881.79	1.45831
303.15 K, x2 = 0.6002	873.106	1.4508
303.15 K, x2 = 0.7002	861.822	1.44139
303.15 K, x2 = 0.7984	847.289	1.42985
303.15 K, x2 = 0.8999	827.516	1.4146
303.15 K, x2 = 0.9493	815.728	1.40565
308.15 K, x2 = 0	900.372	1.47761
308.15 K, x2 = 0.0512	899.101	1.47623
308.15 K, x2 = 0.1	897.686	1.47485
308.15 K, x2 = 0.2005	894.222	1.47136
308.15 K, x2 = 0.3005	889.919	1.46716
308.15 K, x2 = 0.4005	884.519	1.46213
308.15 K, x2 = 0.5	877.726	1.45604
308.15 K, x2 = 0.6002	868.997	1.44852
308.15 K, x2 = 0.7002	857.708	1.43914
308.15 K, x2 = 0.7984	843.219	1.42763
308.15 K, x2 = 0.8999	823.538	1.41241
308.15 K, x2 = 0.9493	811.807	1.40352
313.15 K, x2 = 0	896.608	1.47562
313.15 K, x2 = 0.0512	895.307	1.47419
313.15 K, x2 = 0.1	893.863	1.47267
313.15 K, x2 = 0.2005	890.338	1.4691
313.15 K, x2 = 0.3005	885.971	1.46487
313.15 K, x2 = 0.4005	880.507	1.45979
313.15 K, x2 = 0.5	873.654	1.45368
313.15 K, x2 = 0.6002	864.881	1.44613
313.15 K, x2 = 0.7002	853.579	1.43676
313.15 K, x2 = 0.7984	839.126	1.42522
313.15 K, x2 = 0.8999	819.533	1.41016
313.15 K, x2 = 0.9493	807.851	1.40134
318.15 K, x2 = 0	892.847	1.47347
318.15 K, x2 = 0.0512	891.512	1.472
318.15 K, x2 = 0.1	890.04	1.47049
318.15 K, x2 = 0.2005	886.452	1.46689
318.15 K, x2 = 0.3005	882.018	1.46265
318.15 K, x2 = 0.4005	876.487	1.45753
318.15 K, x2 = 0.5	869.572	1.4514
318.15 K, x2 = 0.6002	860.75	1.44384
318.15 K, x2 = 0.7002	849.434	1.43447
318.15 K, x2 = 0.7984	835.005	1.42299
318.15 K, x2 = 0.8999	815.488	1.40798
318.15 K, x2 = 0.9493	803.854	1.39919
323.15 K, x2 = 0	889.089	1.47134
323.15 K, x2 = 0.0512	887.718	1.46985
323.15 K, x2 = 0.1	886.213	1.46835
323.15 K, x2 = 0.2005	882.559	1.46474
323.15 K, x2 = 0.3005	878.053	1.46049
323.15 K, x2 = 0.4005	872.455	1.45537
323.15 K, x2 = 0.5	865.476	1.4492
323.15 K, x2 = 0.6002	856.603	1.44162
323.15 K, x2 = 0.7002	845.267	1.43225
323.15 K, x2 = 0.7984	830.854	1.42074
323.15 K, x2 = 0.8999	811.404	1.40571
323.15 K, x2 = 0.9493	799.814	1.39701
